Reference: patent US8013176B2, “Paricalcitol purification” (Alphora Research Inc., priority 2008, dated 2011)

Columns and labels:
[1] = Accelerated storage stability studies, purity by HPLC; type: physicochemical
Description: Samples “a” were placed in glass bottles and sealed in a Marvel seal bag under an argon head space, all air having been removed. These were stored at a temperature of 40±2° C. and relative humidity of 75±2%. Samples “b” were similarly packaged and sealed under argon headspace, but stored at 25±2° C. and 60±5% relative humidity. Samples “c” were similarly packaged and sealed under argon headspace, but stored at 5±3° C. Samples “e”, comparative standards, were similarly packaged and sealed under argon headspace, but stored at −20±5° C.
Samples “d” and “f” were placed in glass bottles, but without a marvel seal bag, and stored under air headspace −20±5° C. (samples “d”) and 40±2° C. and relative humidity of 75±2% (samples “f”).
Samples stored at elevated or reduced temperatures were brought to room temperature just prior to sample preparation.
Purity determinations were conducted by High Performance Liquid Chromatography (HPLC), using a Waters Sunfire C18 HPLC Column, 250 by 4.6 mm, with a quaternary or binary HPLC pump, a variable wavelength or photo diode array UV/visible detector set to 252 nm, and an autosampler. Water (degassed) and acetonitrile (degassed) were used as the mobile phase. The column temperature was 25° C., the flow rate 2.0 mL/min with an injection volume of 100 μL and a run time of 60 minutes.

[2] = ICH test protocol storage stability; type: physicochemical; settings: argon headspace, 6 months

Structure (SMILES): C[C@H](/C=C/[C@H](C)C(C)(C)O)[C@H]1CC[C@H]2/C(=C/C=C3C[C@@H](O)C[C@H](O)C3)CCC[C@]12C [Paricalcitol, 1α,25-dihydroxy-19-nor-vitamin D2]
- change in purity on storage ([1]; air headspace, 1 month, 40±2° C., 75%±2% relative humidity, paricalcitol of at least 99.9% purity): no reduction in purity
- change in purity on storage ([1]; argon headspace, 5 months, 40±2° C., 75±2% relative humidity): no reduction in purity
- purity after storage ([1]; samples a: argon headspace, 40±2° C., 75±2% relative humidity, 1 month): 99.9%
- purity after storage ([1]; samples a: argon headspace, 40±2° C., 75±2% relative humidity, 5 months): 99.9%
- purity after storage ([1]; samples b: argon headspace, 25±2° C., 60±5% relative humidity, 1 month): 99.9%
- purity after storage ([1]; samples b: argon headspace, 25±2° C., 60±5% relative humidity, 5 months): 99.8%
- purity after storage ([1]; samples c: argon headspace, 5±3° C., 1 month): 99.9%
- purity after storage ([1]; samples c: argon headspace, 5±3° C., 2 months): 99.9%
- purity after storage ([1]; samples c: argon headspace, 5±3° C., 5 months): 99.9%
- purity after storage ([1]; samples d: air headspace, −20±5° C., 1 month): 99.9%
- purity after storage ([1]; samples d: air headspace, −20±5° C., 5 months): 99.9%
- purity after storage ([1]; samples e: argon headspace, −20±5° C., 1 month): 99.9%
- purity after storage ([1]; samples e: argon headspace, −20±5° C., 2 months): 99.9%
- purity after storage ([1]; samples e: argon headspace, −20±5° C., 5 months): 99.9%
- purity after storage ([1]; samples f: air headspace, 40±2° C., 75±2% relative humidity, 1 month): 99.9%
- change in purity on storage ([2]; 5±3° C.): no reduction in purity
- change in purity on storage ([2]; −20±5° C.): no reduction in purity
